ChEMBL document CHEMBL3885861, “Open TG-GATES”

Organism: Rattus norvegicus
Assay: Open TG-GATES - Regimen: Single
Format: toxicity, organism-based, Sprague-Dawley
Parameters: regimen Single, gender Male, age 6 weeks
Settings: in vivo, po, 300 mg/kg, route gavage, dose level Middle; for APTT / Bas / Eos / Fbg / Hb / Ht / Lym / MCH / MCHC / MCV / Mono / Neu / PT / Plat / RBC / Ret / WBC: tissue Blood; for KIDNEY_L / KIDNEY_R / KIDNEY_TOTAL: tissue Kidney; for LIVER: tissue Liver; for A/G / ALP / ALT / AST / BUN / CRE / Ca / Cl / DBIL / GLC / IP / K / LDH / Na / PL / RALB / TBIL / TC / TG / TP / gamma-GTP: tissue Plasma

Question: How did the TERMINAL_BW (3 h) turn out when `CC(=O)Nc1ccc2c(c1)Cc1ccccc1-2` [2-ACETYLAMINOFLUORENE] was run?
Answer: 222.8 g

Question: And the APTT (3 h)?
Answer: 19.8 s

Question: And the Bas (3 h)?
Answer: 0.4%

Question: And the Eos (3 h)?
Answer: 1.2%

Question: And the Fbg (3 h)?
Answer: 222.4 mg/dL

Question: What about the Hb (3 h) of the same compound?
Answer: 13.9 g/dL

Question: And the Ht (3 h)?
Answer: 39.7%

Question: And the Lym (3 h)?
Answer: 69.8%

Question: What about the MCH (3 h) of the same compound?
Answer: 22.1 pg

Question: And the MCHC (3 h)?
Answer: 34.9%

Question: What about the MCV (3 h) of the same compound?
Answer: 63.3 fL

Question: What about the Mono (3 h) of the same compound?
Answer: 2.8%

Question: What about the Neu (3 h) of the same compound?
Answer: 25.4%

Question: What about the PT (3 h) of the same compound?
Answer: 12 s

Question: And the Plat (3 h)?
Answer: 131.6 x10_4/uL

Question: And the RBC (3 h)?
Answer: 626.2 x10_4/ul

Question: What about the Ret (3 h) of the same compound?
Answer: 7.1%

Question: What about the WBC (3 h) of the same compound?
Answer: 74.2 x10_2/uL

Question: And the KIDNEY_L (3 h)?
Answer: 1 g

Question: And the KIDNEY_R (3 h)?
Answer: 0.9 g

Question: And the KIDNEY_TOTAL (3 h)?
Answer: 1.9 g

Question: And the LIVER (3 h)?
Answer: 10.3 g

Question: What about the A/G (3 h) of the same compound?
Answer: 1.7

Question: And the ALP (3 h)?
Answer: 922.4 IU/L

Question: What about the ALT (3 h) of the same compound?
Answer: 39 IU/L

Question: And the AST (3 h)?
Answer: 78 IU/L

Question: What about the BUN (3 h) of the same compound?
Answer: 12.8 mg/dL

Question: And the CRE (3 h)?
Answer: 0.4 mg/dL

Question: And the Ca (3 h)?
Answer: 10.8 mg/dL

Question: What about the Cl (3 h) of the same compound?
Answer: 103.8 meq/L

Question: What about the DBIL (3 h) of the same compound?
Answer: 0.07 mg/dL

Question: And the GLC (3 h)?
Answer: 201.6 mg/dL

Question: What about the IP (3 h) of the same compound?
Answer: 10.2 mg/dL

Question: What about the K (3 h) of the same compound?
Answer: 3.9 meq/L

Question: What about the LDH (3 h) of the same compound?
Answer: 195.8 IU/L

Question: And the Na (3 h)?
Answer: 141.6 meq/L

Question: What about the PL (3 h) of the same compound?
Answer: 133.2 mg/dL

Question: What about the RALB (3 h) of the same compound?
Answer: 3.6 g/dL

Question: And the TBIL (3 h)?
Answer: 0.1 mg/dL

Question: And the TC (3 h)?
Answer: 74.6 mg/dL

Question: And the TG (3 h)?
Answer: 62.6 mg/dL

Question: And the TP (3 h)?
Answer: 5.7 g/dL

Question: And the gamma-GTP (3 h)?
Answer: 1.4 IU/L

Question: And the TERMINAL_BW (6 h)?
Answer: 219.1 g

Question: And the APTT (6 h)?
Answer: 20 s

Question: And the Bas (6 h)?
Answer: 0.6%

Question: What about the Eos (6 h) of the same compound?
Answer: 0.8%

Question: What about the Fbg (6 h) of the same compound?
Answer: 224.8 mg/dL

Question: What about the Hb (6 h) of the same compound?
Answer: 14.4 g/dL

Question: And the Ht (6 h)?
Answer: 41.9%

Question: What about the Lym (6 h) of the same compound?
Answer: 77.2%

Question: What about the MCH (6 h) of the same compound?
Answer: 21.9 pg

Question: What about the MCHC (6 h) of the same compound?
Answer: 34.4%

Question: What about the MCV (6 h) of the same compound?
Answer: 63.5 fL

Question: And the Mono (6 h)?
Answer: 2.2%

Question: And the Neu (6 h)?
Answer: 18.8%

Question: And the PT (6 h)?
Answer: 12.8 s

Question: And the Plat (6 h)?
Answer: 128 x10_4/uL

Question: And the RBC (6 h)?
Answer: 661.8 x10_4/ul

Question: And the Ret (6 h)?
Answer: 7.2%

Question: What about the WBC (6 h) of the same compound?
Answer: 67.5 x10_2/uL

Question: What about the KIDNEY_L (6 h) of the same compound?
Answer: 1 g

Question: And the KIDNEY_R (6 h)?
Answer: 1 g

Question: And the KIDNEY_TOTAL (6 h)?
Answer: 2 g

Question: And the LIVER (6 h)?
Answer: 10 g

Question: And the A/G (6 h)?
Answer: 1.6

Question: And the ALP (6 h)?
Answer: 837.8 IU/L

Question: And the ALT (6 h)?
Answer: 31.6 IU/L

Question: What about the AST (6 h) of the same compound?
Answer: 67.6 IU/L

Question: What about the BUN (6 h) of the same compound?
Answer: 12.2 mg/dL

Question: And the CRE (6 h)?
Answer: 0.5 mg/dL

Question: What about the Ca (6 h) of the same compound?
Answer: 10.8 mg/dL

Question: What about the Cl (6 h) of the same compound?
Answer: 102.6 meq/L

Question: What about the DBIL (6 h) of the same compound?
Answer: 0.068 mg/dL

Question: And the GLC (6 h)?
Answer: 218.2 mg/dL

Question: And the IP (6 h)?
Answer: 9.1 mg/dL

Question: What about the K (6 h) of the same compound?
Answer: 3.8 meq/L

Question: And the LDH (6 h)?
Answer: 191.4 IU/L

Question: What about the Na (6 h) of the same compound?
Answer: 141 meq/L

Question: And the PL (6 h)?
Answer: 144.4 mg/dL

Question: What about the RALB (6 h) of the same compound?
Answer: 3.5 g/dL

Question: What about the TBIL (6 h) of the same compound?
Answer: 0.1 mg/dL

Question: What about the TC (6 h) of the same compound?
Answer: 85.2 mg/dL

Question: What about the TG (6 h) of the same compound?
Answer: 32.6 mg/dL

Question: And the TP (6 h)?
Answer: 5.6 g/dL

Question: And the gamma-GTP (6 h)?
Answer: 1.2 IU/L

Question: What about the TERMINAL_BW (9 h) of the same compound?
Answer: 215.7 g

Question: What about the APTT (9 h) of the same compound?
Answer: 18.1 s

Question: And the Bas (9 h)?
Answer: 0.2%

Question: And the Eos (9 h)?
Answer: 0.6%

Question: And the Fbg (9 h)?
Answer: 233.8 mg/dL

Question: And the Hb (9 h)?
Answer: 13.9 g/dL

Question: And the Ht (9 h)?
Answer: 40.7%

Question: What about the Lym (9 h) of the same compound?
Answer: 74%

Question: And the MCH (9 h)?
Answer: 21.4 pg

Question: And the MCHC (9 h)?
Answer: 34.2%

Question: What about the MCV (9 h) of the same compound?
Answer: 62.5 fL

Question: And the Mono (9 h)?
Answer: 2.8%

Question: And the Neu (9 h)?
Answer: 21.8%

Question: What about the PT (9 h) of the same compound?
Answer: 13 s

Question: What about the Plat (9 h) of the same compound?
Answer: 136.5 x10_4/uL

Question: And the RBC (9 h)?
Answer: 652 x10_4/ul

Question: What about the Ret (9 h) of the same compound?
Answer: 7.4%

Question: What about the WBC (9 h) of the same compound?
Answer: 80.9 x10_2/uL

Question: What about the KIDNEY_L (9 h) of the same compound?
Answer: 1 g

Question: And the KIDNEY_R (9 h)?
Answer: 1 g

Question: What about the KIDNEY_TOTAL (9 h) of the same compound?
Answer: 1.9 g

Question: And the LIVER (9 h)?
Answer: 9.7 g

Question: And the A/G (9 h)?
Answer: 1.6

Question: And the ALP (9 h)?
Answer: 756.6 IU/L

Question: What about the ALT (9 h) of the same compound?
Answer: 31.4 IU/L

Question: What about the AST (9 h) of the same compound?
Answer: 68 IU/L

Question: What about the BUN (9 h) of the same compound?
Answer: 10.4 mg/dL

Question: And the CRE (9 h)?
Answer: 0.4 mg/dL

Question: And the Ca (9 h)?
Answer: 10.5 mg/dL

Question: And the Cl (9 h)?
Answer: 103.4 meq/L

Question: What about the DBIL (9 h) of the same compound?
Answer: 0.06 mg/dL

Question: And the GLC (9 h)?
Answer: 206.4 mg/dL

Question: And the IP (9 h)?
Answer: 8.9 mg/dL

Question: And the K (9 h)?
Answer: 4 meq/L

Question: And the LDH (9 h)?
Answer: 184.6 IU/L

Question: What about the Na (9 h) of the same compound?
Answer: 140.2 meq/L

Question: What about the PL (9 h) of the same compound?
Answer: 125 mg/dL

Question: What about the RALB (9 h) of the same compound?
Answer: 3.5 g/dL

Question: What about the TBIL (9 h) of the same compound?
Answer: 0.1 mg/dL

Question: And the TC (9 h)?
Answer: 72.2 mg/dL

Question: What about the TG (9 h) of the same compound?
Answer: 32.2 mg/dL

Question: What about the TP (9 h) of the same compound?
Answer: 5.7 g/dL

Question: What about the gamma-GTP (9 h) of the same compound?
Answer: 1.2 IU/L

Question: And the TERMINAL_BW (24 h)?
Answer: 220.9 g

Question: What about the APTT (24 h) of the same compound?
Answer: 19.1 s

Question: And the Bas (24 h)?
Answer: 0.6%

Question: What about the Eos (24 h) of the same compound?
Answer: 1%

Question: What about the Fbg (24 h) of the same compound?
Answer: 210.8 mg/dL

Question: And the Hb (24 h)?
Answer: 14.5 g/dL

Question: And the Ht (24 h)?
Answer: 41.9%

Question: And the Lym (24 h)?
Answer: 75.2%

Question: What about the MCH (24 h) of the same compound?
Answer: 22.2 pg

Question: And the MCHC (24 h)?
Answer: 34.8%

Question: And the MCV (24 h)?
Answer: 63.7 fL

Question: And the Mono (24 h)?
Answer: 3.2%

Question: And the Neu (24 h)?
Answer: 19.8%

Question: And the PT (24 h)?
Answer: 14.4 s

Question: What about the Plat (24 h) of the same compound?
Answer: 131.6 x10_4/uL

Question: What about the RBC (24 h) of the same compound?
Answer: 657.8 x10_4/ul

Question: What about the Ret (24 h) of the same compound?
Answer: 5.9%

Question: And the WBC (24 h)?
Answer: 77.9 x10_2/uL

Question: What about the KIDNEY_L (24 h) of the same compound?
Answer: 1 g

Question: And the KIDNEY_R (24 h)?
Answer: 1 g

Question: And the KIDNEY_TOTAL (24 h)?
Answer: 2 g

Question: What about the LIVER (24 h) of the same compound?
Answer: 11 g

Question: What about the A/G (24 h) of the same compound?
Answer: 1.7

Question: And the ALP (24 h)?
Answer: 865 IU/L

Question: What about the ALT (24 h) of the same compound?
Answer: 35.4 IU/L

Question: And the AST (24 h)?
Answer: 74 IU/L

Question: And the BUN (24 h)?
Answer: 15.6 mg/dL

Question: And the CRE (24 h)?
Answer: 0.4 mg/dL

Question: And the Ca (24 h)?
Answer: 10.6 mg/dL

Question: What about the Cl (24 h) of the same compound?
Answer: 105.2 meq/L

Question: And the DBIL (24 h)?
Answer: 0.098 mg/dL

Question: And the GLC (24 h)?
Answer: 196.6 mg/dL

Question: And the IP (24 h)?
Answer: 9.1 mg/dL

Question: And the K (24 h)?
Answer: 4.3 meq/L

Question: What about the LDH (24 h) of the same compound?
Answer: 212.8 IU/L

Question: What about the Na (24 h) of the same compound?
Answer: 140.6 meq/L

Question: And the PL (24 h)?
Answer: 117 mg/dL

Question: What about the RALB (24 h) of the same compound?
Answer: 3.3 g/dL

Question: What about the TBIL (24 h) of the same compound?
Answer: 0.2 mg/dL

Question: What about the TC (24 h) of the same compound?
Answer: 52 mg/dL

Question: And the TG (24 h)?
Answer: 75.8 mg/dL

Question: And the TP (24 h)?
Answer: 5.2 g/dL

Question: And the gamma-GTP (24 h)?
Answer: 1.2 IU/L
